Assay results as given in ChEMBL document CHEMBL1156113, “Synthesis of new sugar derivatives and evaluation of their antibacterial activities against Mycobacterium tuberculosis” (Bioorg Med Chem Lett, 2009).
≈ marks a conversion by molar mass, not a printed value.

Assays:
[1] = test system: Mycobacterium avium; assay: Antibacterial activity against Mycobacterium avium 724S by broth dilution method; assay type: functional
[2] = test system: Escherichia coli; assay: Antibacterial activity against Escherichia coli by broth dilution method; assay type: functional
[3] = test system: Mycobacterium avium; assay: Antibacterial activity against Mycobacterium avium SmO by broth dilution method; assay type: functional
[4] = microbe, parasite or virus in culture; assay type: functional, Mycobacterium bovis BCG str. Tokyo 172; settings: Mycobacterium tuberculosis variant bovis BCG
Description: (§1) Antibacterial activity against Mycobacterium bovis BCG str. Tokyo 172 by broth dilution method

[5] = test system: Mycolicibacterium smegmatis; assay: Antibacterial activity against Mycobacterium smegmatis by broth dilution method; assay type: functional
[6] = test system: Mycobacterium tuberculosis; assay: Antituberculosis activity against Mycobacterium tuberculosis H37Rv by broth dilution method; assay type: functional
[7] = test system: Staphylococcus aureus; assay: Antibacterial activity against Staphylococcus aureus by broth dilution method; assay type: functional
[8] = test system: Mycobacterium tuberculosis; assay: Antimycobacterial activity against drug-susceptive Mycobacterium tuberculosis isolate A-3-2 by agar proportion method; assay type: functional
[9] = test system: Mycobacterium tuberculosis; assay: Antimycobacterial activity against drug-susceptive Mycobacterium tuberculosis isolate A-3-15 by agar proportion method; assay type: functional
[10] = Selectivity for Mycobacterium tuberculosis H37Rv over human MRC5 cells; design: reference not given here
[11] = test system: Mycobacterium tuberculosis; assay: Antimycobacterial activity against drug-susceptive Mycobacterium tuberculosis isolate A-3-9 by agar proportion method; assay type: functional
[12] = test system: Mycobacterium tuberculosis; assay: Antimycobacterial activity against drug-susceptive Mycobacterium tuberculosis isolate A-1-1 by agar proportion method; assay type: functional
[13] = test system: Mycobacterium tuberculosis; assay: Antimycobacterial activity against drug-susceptive Mycobacterium tuberculosis isolate A-3-1 by agar proportion method; assay type: functional
[14] = test system: Mycobacterium tuberculosis; assay: Antimycobacterial activity against drug-susceptive Mycobacterium tuberculosis isolate A-3-16 by agar proportion method; assay type: functional
[15] = test system: Mycobacterium tuberculosis; assay: Antimycobacterial activity against drug-susceptive Mycobacterium tuberculosis isolate A-3-5 by agar proportion method; assay type: functional
[16] = test system: Mycobacterium tuberculosis; assay: Antimycobacterial activity against drug-susceptive Mycobacterium tuberculosis isolate A-3-11 by agar proportion method; assay type: functional
[17] = Selectivity for Mycobacterium tuberculosis H37Rv over human A549 cells; design: reference not given here
[18] = test system: Mycobacterium tuberculosis; assay: Antimycobacterial activity against drug-susceptive Mycobacterium tuberculosis isolate A-3-12 by agar proportion method; assay type: functional
[19] = Selectivity for Mycobacterium tuberculosis H37Rv over human THP1 cells; design: species or system THP-1; reference not given here
[20] = test system: Mycobacterium tuberculosis; assay: Antimycobacterial activity against drug-susceptive Mycobacterium tuberculosis isolate A-1-2 by agar proportion method; assay type: functional
[21] = test system: Mycobacterium tuberculosis; assay: Antimycobacterial activity against drug-susceptive Mycobacterium tuberculosis isolate A-1-3 by agar proportion method; assay type: functional
[22] = test system: Mycobacterium tuberculosis; assay: Antimycobacterial activity against drug-susceptive Mycobacterium tuberculosis isolate A-3-22 by agar proportion method; assay type: functional
[23] = test system: Mycobacterium tuberculosis; assay: Antimycobacterial activity against drug-susceptive Mycobacterium tuberculosis isolate A-3-20 by agar proportion method; assay type: functional
[24] = test system: Mycobacterium tuberculosis; assay: Antimycobacterial activity against drug-susceptive Mycobacterium tuberculosis isolate A-3-6 by agar proportion method; assay type: functional
[25] = test system: Mycobacterium tuberculosis; assay: Antimycobacterial activity against drug-susceptive Mycobacterium tuberculosis isolate A-3-13 by agar proportion method; assay type: functional
[26] = test system: Mycobacterium tuberculosis; assay: Antimycobacterial activity against drug-susceptive Mycobacterium tuberculosis isolate A-3-21 by agar proportion method; assay type: functional
[27] = test system: Mycobacterium tuberculosis; assay: Antimycobacterial activity against drug-susceptive Mycobacterium tuberculosis isolate A-3-17 by agar proportion method; assay type: functional
[28] = test system: Mycobacterium tuberculosis; assay: Antimycobacterial activity against drug-susceptive Mycobacterium tuberculosis isolate A-3-19 by agar proportion method; assay type: functional
[29] = test system: Mycobacterium tuberculosis; assay: Antimycobacterial activity against drug-susceptive Mycobacterium tuberculosis isolate A-2-5 by agar proportion method; assay type: functional
[30] = test system: Mycolicibacterium smegmatis
[31] = test system: Mycobacterium avium; settings: SmO
[32] = test system: Staphylococcus aureus
[33] = test system: Mycobacterium bovis BCG str. Tokyo 172
Description: as §1

[34] = test system: Mycobacterium tuberculosis; settings: H37Rv
[35] = test system: Mycobacterium avium; settings: 724S
[36] = test system: Escherichia coli

Row | Molecule | MIC [1] [µg/mL] | MIC [2] [µg/mL] | MIC [3] [µg/mL] | MIC [4] [µg/mL] | MIC [5] [µg/mL] | MIC [6] [µg/mL] | MIC [7] [µg/mL] | Ratio [10] | Ratio [17] | Ratio [19] | other results
1 | CC(=O)N[C@@H]1[C@@H](O)[C@H](O)[C@@H](CSC(=S)N(C)C)O[C@H]1SC(=S)N(C)C | > 100 | > 100 | > 100 | > 100 | > 100 | 25 (≈ 58.5 µM) | > 100 | – | – | – | –
2 | CC(=O)N[C@@H]1[C@@H](OC(C)=O)[C@H](OC(C)=O)[C@@H](COC(C)=O)O[C@H]1SC(=S)N(C)C | > 100 | > 100 | > 100 | > 100 | > 100 | > 100 | > 100 | – | – | – | –
3 | CC(=O)N[C@@H]1[C@@H](O)[C@H](O)[C@@H](CO)O[C@H]1SC(=S)N(C)C | > 100 | > 100 | > 100 | 31.3 (≈ 96.5 µM) | > 100 | 25 (≈ 77.1 µM) | > 100 | 28 | 188 | 242 | MIC [8]: 6.25 µg/mL (≈ 19.3 µM); MIC [9]: 6.25 µg/mL (≈ 19.3 µM); MIC [11]: 6.25 µg/mL (≈ 19.3 µM); MIC [12]: 6.25 µg/mL (≈ 19.3 µM); MIC [13]: 6.25 µg/mL (≈ 19.3 µM); MIC [14]: 6.25 µg/mL (≈ 19.3 µM); MIC [15]: 6.25 µg/mL (≈ 19.3 µM); MIC [16]: 6.25 µg/mL (≈ 19.3 µM); MIC [18]: 6.25 µg/mL (≈ 19.3 µM); MIC [20]: 6.25 µg/mL (≈ 19.3 µM); MIC [21]: 6.25 µg/mL (≈ 19.3 µM); MIC [22]: 6.25 µg/mL (≈ 19.3 µM); MIC [23]: 6.25 µg/mL (≈ 19.3 µM); MIC [24]: 6.25 µg/mL (≈ 19.3 µM); MIC [25]: 6.25 µg/mL (≈ 19.3 µM); MIC [26]: 6.25 µg/mL (≈ 19.3 µM); MIC [27]: 12.5 µg/mL (≈ 38.5 µM); MIC [28]: 6.25 µg/mL (≈ 19.3 µM); MIC [29]: 6.25 µg/mL (≈ 19.3 µM)
4 | CC(=O)N[C@H]1[C@H](OC(C)=O)O[C@H](COC(C)=O)[C@@H](OC(C)=O)[C@@H]1OC(C)=O | – | – | – | > 100 | > 100 | > 100 | – | – | – | – | –
5 | CC(=O)N[C@@H]1[C@@H](O)[C@@H](O)[C@@H](CO)O[C@H]1SC(=S)N(C)C | > 100 | > 100 | > 100 | 25 (≈ 77.1 µM) | > 100 | 12.5 (≈ 38.5 µM) | > 100 | – | – | – | –
6 | CC(=O)N[C@H]1[C@@H](O)[C@H](O)[C@@H](CO)O[C@@H]1SC(=S)N(C)C | > 100 | > 100 | > 100 | > 100 | > 100 | > 100 | > 100 | – | – | – | –
7 | NCC[C@H](O)C(=O)N[C@@H]1C[C@H](N)[C@@H](O[C@H]2O[C@H](CN)[C@@H](O)[C@H](O)[C@H]2O)[C@H](O)[C@H]1O[C@H]1O[C@H](CO)[C@@H](O)[C@H](N)[C@H]1O [AMIKACIN] | > 100 | 50 (≈ 85.4 µM) | 1.56 (≈ 2.66 µM) | 0.78 (≈ 1.33 µM) | 1.25 (≈ 2.13 µM) | 1.75 (≈ 2.99 µM) | 100 (≈ 171 µM) | – | – | – | –
8 | Nc1ccc(C(=O)O)c(O)c1 [AMINOSALICYLIC ACID] | 100 (≈ 653 µM) | > 100 | 100 (≈ 653 µM) | 50 (≈ 327 µM) | 1000 (≈ 6530 µM) | 0.16 (≈ 1.04 µM) | > 100 | – | – | – | –
9 | CNC.Cl [DIMETHYLAMINE HCL] | – | – | – | > 100 | > 100 | > 100 | – | – | – | – | –
10 | CNC [DIMETHYLAMINE] | – | – | – | > 100 | > 100 | > 100 | – | – | – | – | –
11 | CC[C@@H](CO)NCCN[C@@H](CC)CO [ETHAMBUTOL] | 3.13 (≈ 15.3 µM) | > 100 | 1.56 (≈ 7.64 µM) | 1.5 (≈ 7.34 µM) | 12.5 (≈ 61.2 µM) | 2.5 (≈ 12.2 µM) | > 100 | 111 | 1434 | 916 | –
12 | NNC(=O)c1ccncc1 [ISONIAZID] | 50 (≈ 365 µM) | > 100 | 3.13 (≈ 22.8 µM) | 0.04 (≈ 0.292 µM) | 6.25 (≈ 45.6 µM) | 0.04 (≈ 0.292 µM) | > 100 | 7325 | 77277 | 53613 | –
13 | NC[C@H]1O[C@H](O[C@H]2[C@H](O)[C@@H](O[C@H]3O[C@H](CO)[C@@H](O)[C@H](N)[C@H]3O)[C@H](N)C[C@@H]2N)[C@H](O)[C@@H](O)[C@@H]1O [KANAMYCIN] | > 100 | 12.5 (≈ 25.8 µM) | 1.56 (≈ 3.22 µM) | 0.3 (≈ 0.619 µM) | 3.13 (≈ 6.46 µM) | 1.56 (≈ 3.22 µM) | 12.5 (≈ 25.8 µM) | – | – | – | –
14 | CO[C@H]1/C=C/O[C@@]2(C)Oc3c(C)c(O)c4c(O)c(c(/C=N/N5CCN(C)CC5)c(O)c4c3C2=O)NC(=O)/C(C)=C\C=C\[C@H](C)[C@H](O)[C@@H](C)[C@@H](O)[C@@H](C)[C@H](OC(C)=O)[C@@H]1C [RIFAMPIN] | < 0.05 | 50 (≈ 60.8 µM) | 0.004 (≈ 0.00486 µM) | 0.004 (≈ 0.00486 µM) | 1.56 (≈ 1.9 µM) | 0.004 (≈ 0.00486 µM) | 0.002 (≈ 0.00243 µM) | 16250 | 44510 | 16256 | –
15 | CN(C)C(=S)[S-].[Na+] [SODIUM DIMETHYLCARBAMODITHIOATE] | – | > 100 | – | 0.78 | > 100 | 0.78 | > 100 | 14 | 318 | 88 | –
16 | CN[C@@H]1[C@H](O[C@H]2[C@H](O[C@H]3[C@H](O)[C@@H](O)[C@H](N=C(N)N)[C@@H](O)[C@@H]3N=C(N)N)O[C@@H](C)[C@]2(O)C=O)O[C@@H](CO)[C@H](O)[C@H]1O [STREPTOMYCIN] | 0.39 (≈ 0.671 µM) | 50 (≈ 86 µM) | 0.39 (≈ 0.671 µM) | 0.2 (≈ 0.344 µM) | 0.39 (≈ 0.671 µM) | 0.39 (≈ 0.671 µM) | 50 (≈ 86 µM) | 4282 | 32154 | 18367 | –
17 | GENTAMICIN | – | – | – | – | – | – | – | – | – | – | MIC [30]: 1.56 µg/mL; MIC [31]: 1.56 µg/mL; MIC [32]: 25 µg/mL; MIC [33]: 1.56 µg/mL; MIC [34]: 3.13 µg/mL; MIC [35]: 25 µg/mL; MIC [36]: 6.25 µg/mL
